Measured values as given in US11497833B2, “Self-assembling peptides comprising non-Ionic polar amino acids” (3-D Matrix, Ltd., priority 2014, dated 2022).
Peptide text beside a SMILES is read from it.

Key:
Format in all cases: physicochemical
[1] = Dissolution in deionized water and visual appearance of peptide solution; details: deionized water
[2] = Stability to autoclave sterilization, mass spectrometry before and after autoclave; details: 121° C. for 25 min, high pressure saturated steam; mass spec before and after; N- and C-terminus not protected
Description: Sterilization is a very important step in the manufacturing process for all biomaterials, including the self-assembling peptide solutions.

[3] = Atomic Force Microscopy (AFM) morphological study of peptide nano structures; details: 100 μM peptide solution on mica, rinsed, air-dried, tapping mode
Procedure: Each sample was left on the mica for about 30 seconds (s) and then rinsed with aliquots of 100 μl of Milli-Q (ultrapure) water to remove unattached peptides. The sample on the mica surface was then air-dried for AFM observation. AFM was performed with Asylum-1 MFP-3D AFM System (Asylum Research, Santa Barbara, Calif.) using a tapping mode. The images utilized an Olympus Si tip (AC240FS). The cantilever's free resonance frequency was 70 kHz.

[4] = Congo Red assay of gel formation in PBS buffer (pH 7.4); details: 1% Congo Red in PBS buffer pH 7.4
Procedure: A Congo Red assay was performed to determine gel formation of peptide solutions in a PBS buffer solution (pH 7.4). 100 μl of each gel at varying concentrations were plated on a glass slide. After 30 seconds, 500 μl of a 1% Congo Red solution in PBS buffer (pH 7.4) was added around and on top of each of the gel aliquots and then the excess Congo Red solution was wiped off prior to examination.
Visualization of gel formation determined the success or failure of gelation at each concentration.

[5] = Rheological properties at various concentrations (rheometer, stress sweep); details: 37° C., 10 rad/s; for Loss Modulus (G')* / Storage Modulus (G')*: at 1 Pa of oscillation stress
Procedure: The rheological properties of the ST14 (SEQ ID NO:2) were evaluated at various concentrations using a rheometer (AR500, TA Instruments) with 40 mm plates. Peptide solution (700μL) was placed on the rheometer plate and excess solution was gently removed by Kimwipes; measurements were performed after 2 minutes of relaxation time at 37° C. The storage modulus, loss modulus, and viscosity (η′) were measured at 37° C. with the plates placed at a measuring geometry gap of 300 μm, and stress sweep tests were performed at 0.1 Pa˜1000 Pa of oscillation stress with angular frequency at 10 rad/s.

solution consistency ([1]; 5 percent w/v) | AFM morphology (nano structure) [3] | gel formation ([4]; below 1% peptide) | Structure (SMILES) | appearance in solution ([1]; 1 percent w/v to 5 percent w/v) | degradation during autoclave treatment [2] | solution consistency ([1]; 1 percent w/v to 5 percent w/v) | Max. Viscosity (max η') ([5]; Concentration 1) [Pa-s] | Loss Modulus (G')* ([5]; Concentration 1) [Pa] | Storage Modulus (G')* ([5]; Concentration 1) [Pa] | Max. Viscosity (max η') ([5]; Concentration 1.5) [Pa-s] | Loss Modulus (G')* ([5]; Concentration 1.5) [Pa] | Storage Modulus (G')* ([5]; Concentration 1.5) [Pa] | Max. Viscosity (max η') ([5]; Concentration 2) [Pa-s] | Loss Modulus (G')* ([5]; Concentration 2) [Pa] | Storage Modulus (G')* ([5]; Concentration 2) [Pa] | Max. Viscosity (max η') ([5]; Concentration 2.5) [Pa-s] | Loss Modulus (G')* ([5]; Concentration 2.5) [Pa] | Storage Modulus (G')* ([5]; Concentration 2.5) [Pa] | gel formation ([4]; 0.5% peptide)
formed a thick solution | Aggregates | did not form a gel | CC(O)C(N)C(=O)NC(C(=O)NC(C(=O)NC(C(=O)NC(C(=O)NC(C(=O)NC(C(=O)NC(C(=O)NC(C(=O)NC(C(=O)NC(C(=O)NC(C(=O)NC(C(=O)NC(C(=O)O)C(C)O)C(C)O)C(C)O)C(C)O)C(C)O)C(C)O)C(C)O)C(C)O)C(C)O)C(C)O)C(C)O)C(C)O)C(C)O (stereo not drawn) [Peptide T14, TTTTTTTTTTTTTT] | translucent | did not degrade |  |  |  |  |  |  |  |  |  |  |  |  |  | 
 |  |  | CC(O)C(NC(=O)C(CO)NC(=O)C(NC(=O)C(CO)NC(=O)C(NC(=O)C(CO)NC(=O)C(NC(=O)C(CO)NC(=O)C(NC(=O)C(CO)NC(=O)C(NC(=O)C(CO)NC(=O)C(NC(=O)C(N)CO)C(C)O)C(C)O)C(C)O)C(C)O)C(C)O)C(C)O)C(=O)O (stereo not drawn) [ST14, STSTSTSTSTSTST] (H-STSTSTSTSTSTST-OH; configuration not given here) | translucent | did not degrade | formed thick solutions | 1.2 | 11.4 | 67 | 1.5 | 9.8 | 94 | 2.0 | 17.3 | 136 | 2.2 | 17.1 | 167 | did not form a gel
